Measurements published in US20240210412A1, “SULFONYL-TRIAZOLE COMPOUNDS USEFUL AS LIGANDS AND INHIBITORS OF PROSTAGLANDIN REDUCTASE 2” (University of Virginia Patent Foundation, priority 2021, published 2024).

Columns and labels:
Assay in all cases: SILAC LC-MS ABPP
Type in all cases: cell-based
Conditions in all cases: 25 μM 2 h, live DM93 cells
O60828 = target: T1, O60828 (Homo sapiens, UniProt O60828)
T1 construct: endogenous in cells; host or cells: DM93
How it was run: (§1)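 Chemical proteomics in DM93 melanoma, light/heavy SILAC pairs. Vehicle versus 25 μM covalent sulfonyl-triazole for 2 h (37 °C) in serum-free medium was followed by 100 μM HHS-475 labelling for 2 h; tyrosine sites were identified and quantified by LC-MS/MS of avidin-enriched tryptic peptides.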

P51784 = target: T2, P51784 (Homo sapiens, UniProt P51784)
T2 construct: endogenous in cells; host or cells: DM93 cells (SILAC)
How it was run: as §1

P52597 = target: T3, P52597 (Homo sapiens, UniProt P52597)
T3 construct: endogenous in cells; host or cells: DM93 cells (SILAC)
T3 sequence (P52597 whole entry): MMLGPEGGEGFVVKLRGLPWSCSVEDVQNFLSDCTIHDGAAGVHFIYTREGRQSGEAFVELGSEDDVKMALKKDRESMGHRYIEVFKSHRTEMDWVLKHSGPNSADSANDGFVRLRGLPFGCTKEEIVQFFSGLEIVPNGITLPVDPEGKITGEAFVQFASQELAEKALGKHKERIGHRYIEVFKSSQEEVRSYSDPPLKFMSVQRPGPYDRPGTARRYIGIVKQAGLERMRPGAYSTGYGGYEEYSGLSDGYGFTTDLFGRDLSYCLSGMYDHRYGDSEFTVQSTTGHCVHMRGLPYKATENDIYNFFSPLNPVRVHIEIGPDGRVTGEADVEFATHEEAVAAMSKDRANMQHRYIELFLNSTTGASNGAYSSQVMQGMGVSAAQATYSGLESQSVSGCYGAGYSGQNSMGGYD
How it was run: as §1

P61289 = target: T4, P61289 (Homo sapiens, UniProt P61289)
T4 construct: endogenous in cells; host or cells: DM93 cells (SILAC)
How it was run: as §1

Q8WVJ2 = target: T5, Q8WVJ2 (Homo sapiens, UniProt Q8WVJ2)
T5 construct: endogenous in cells; host or cells: DM93 cells (SILAC), live-cell treatment
How it was run: as §1

O75521 = target: T6, O75521 (Homo sapiens, UniProt O75521)
T6 construct: endogenous in cells; host or cells: DM93 cells (SILAC)
How it was run: as §1

P07814 = target: T7, P07814 (Homo sapiens, UniProt P07814)
T7 construct: endogenous in cells; host or cells: DM93 cells (SILAC)
How it was run: as §1

Q92878 = target: T8, Q92878 (Homo sapiens, UniProt Q92878)
T8 construct: endogenous in cells; host or cells: DM93 cells (SILAC), live-cell treatment
T8 sequence (Q92878 whole entry): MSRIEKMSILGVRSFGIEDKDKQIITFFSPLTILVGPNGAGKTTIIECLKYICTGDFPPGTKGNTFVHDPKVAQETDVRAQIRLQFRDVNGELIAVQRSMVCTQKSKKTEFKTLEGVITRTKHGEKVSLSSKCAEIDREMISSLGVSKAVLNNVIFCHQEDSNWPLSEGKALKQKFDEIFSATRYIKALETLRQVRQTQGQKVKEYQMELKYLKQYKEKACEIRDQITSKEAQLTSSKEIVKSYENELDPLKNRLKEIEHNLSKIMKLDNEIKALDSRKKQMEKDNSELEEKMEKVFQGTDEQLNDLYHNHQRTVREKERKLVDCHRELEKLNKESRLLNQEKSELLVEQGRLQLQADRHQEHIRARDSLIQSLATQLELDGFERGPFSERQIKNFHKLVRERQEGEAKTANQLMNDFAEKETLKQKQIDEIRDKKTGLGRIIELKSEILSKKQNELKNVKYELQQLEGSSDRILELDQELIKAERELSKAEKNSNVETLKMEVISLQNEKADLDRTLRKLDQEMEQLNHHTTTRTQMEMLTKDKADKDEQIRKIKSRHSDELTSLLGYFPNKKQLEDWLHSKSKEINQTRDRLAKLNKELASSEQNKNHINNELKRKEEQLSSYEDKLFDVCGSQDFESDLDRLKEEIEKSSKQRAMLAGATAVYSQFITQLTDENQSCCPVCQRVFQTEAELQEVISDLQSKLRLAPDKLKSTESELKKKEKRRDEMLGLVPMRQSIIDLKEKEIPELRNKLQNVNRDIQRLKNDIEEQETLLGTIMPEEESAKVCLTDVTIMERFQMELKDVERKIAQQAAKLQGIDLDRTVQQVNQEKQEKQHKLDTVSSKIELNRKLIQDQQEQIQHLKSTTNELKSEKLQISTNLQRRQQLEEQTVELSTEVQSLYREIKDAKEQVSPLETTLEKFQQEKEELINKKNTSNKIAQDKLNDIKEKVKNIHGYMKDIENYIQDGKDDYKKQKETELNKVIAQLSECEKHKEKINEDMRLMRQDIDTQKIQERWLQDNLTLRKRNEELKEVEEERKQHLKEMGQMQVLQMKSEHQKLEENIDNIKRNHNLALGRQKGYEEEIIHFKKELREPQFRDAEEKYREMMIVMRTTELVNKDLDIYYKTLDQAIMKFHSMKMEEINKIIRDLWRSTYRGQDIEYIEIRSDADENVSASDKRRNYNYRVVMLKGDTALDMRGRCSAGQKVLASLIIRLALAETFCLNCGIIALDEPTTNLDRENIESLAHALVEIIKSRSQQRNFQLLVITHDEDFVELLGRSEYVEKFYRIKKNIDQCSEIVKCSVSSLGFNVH
How it was run: as §1

Q96A72 = target: T9, Q96A72 (Homo sapiens, UniProt Q96A72)
T9 construct: endogenous in cells; host or cells: DM93 cells (SILAC), treated live; soluble proteome analysed
How it was run: as §1

Q9NV35 = target: T10, Q9NV35 (Homo sapiens, UniProt Q9NV35)
T10 construct: endogenous in cells; host or cells: DM93 cells (SILAC), treated live; soluble proteome analysed
T10 sequence (Q9NV35 whole entry): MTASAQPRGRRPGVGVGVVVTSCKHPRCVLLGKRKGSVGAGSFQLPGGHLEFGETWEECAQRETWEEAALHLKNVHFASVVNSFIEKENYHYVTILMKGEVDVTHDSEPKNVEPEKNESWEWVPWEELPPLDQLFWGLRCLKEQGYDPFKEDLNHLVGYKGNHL
How it was run: as §1

Q9UDY2 = target: T11, Q9UDY2 (Homo sapiens, UniProt Q9UDY2)
T11 construct: endogenous in cells; host or cells: DM93 cells (SILAC)
How it was run: as §1

P30533 = target: T12, P30533 (Homo sapiens, UniProt P30533)
T12 construct: endogenous in cells; host or cells: DM93 (SILAC)
T12 sequence (P30533 35-357): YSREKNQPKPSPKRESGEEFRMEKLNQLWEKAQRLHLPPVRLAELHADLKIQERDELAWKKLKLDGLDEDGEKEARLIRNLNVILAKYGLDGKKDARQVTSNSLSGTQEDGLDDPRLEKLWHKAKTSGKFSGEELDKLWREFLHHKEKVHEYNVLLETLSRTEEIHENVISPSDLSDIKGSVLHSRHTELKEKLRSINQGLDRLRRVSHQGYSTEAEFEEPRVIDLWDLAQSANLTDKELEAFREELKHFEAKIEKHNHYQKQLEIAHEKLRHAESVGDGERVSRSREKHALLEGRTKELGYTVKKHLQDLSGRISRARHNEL
How it was run: as §1

P78527 = target: T13, P78527 (Homo sapiens, UniProt P78527)
T13 construct: performing SuTEx compound screening directly in cells; endogenous in cells; host or cells: DM93 cells (SILAC)
How it was run: as §1

Q06203 = target: T14, Q06203 (Homo sapiens, UniProt Q06203)
T14 construct: performing SuTEx compound screening directly in cells; endogenous in cells; host or cells: DM93 cells (SILAC)
T14 sequence (Q06203 12-517): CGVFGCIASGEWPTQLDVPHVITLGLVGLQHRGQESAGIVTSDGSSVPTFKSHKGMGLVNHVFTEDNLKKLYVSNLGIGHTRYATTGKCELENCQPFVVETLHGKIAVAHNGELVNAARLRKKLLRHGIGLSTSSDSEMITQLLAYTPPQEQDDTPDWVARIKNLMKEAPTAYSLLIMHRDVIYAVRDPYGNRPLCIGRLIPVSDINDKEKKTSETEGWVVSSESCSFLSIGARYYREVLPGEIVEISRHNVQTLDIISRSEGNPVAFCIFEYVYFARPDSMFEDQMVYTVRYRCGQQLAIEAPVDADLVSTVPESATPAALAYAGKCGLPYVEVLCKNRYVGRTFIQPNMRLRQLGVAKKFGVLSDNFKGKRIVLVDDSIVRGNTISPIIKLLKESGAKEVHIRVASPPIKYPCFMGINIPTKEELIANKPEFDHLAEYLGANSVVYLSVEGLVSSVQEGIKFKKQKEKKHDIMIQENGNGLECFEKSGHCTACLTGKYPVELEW
How it was run: as §1

P14550 = target: T15, P14550 (Homo sapiens, UniProt P14550)
T15 construct: endogenous in cells; host or cells: DM93 cells (SILAC)
How it was run: as §1

Q15154 = target: T16, Q15154 (Homo sapiens, UniProt Q15154)
T16 construct: performing SuTEx compound screening directly in cells; endogenous in cells; host or cells: DM93 cells (SILAC), soluble fraction
T16 sequence (Q15154 whole entry): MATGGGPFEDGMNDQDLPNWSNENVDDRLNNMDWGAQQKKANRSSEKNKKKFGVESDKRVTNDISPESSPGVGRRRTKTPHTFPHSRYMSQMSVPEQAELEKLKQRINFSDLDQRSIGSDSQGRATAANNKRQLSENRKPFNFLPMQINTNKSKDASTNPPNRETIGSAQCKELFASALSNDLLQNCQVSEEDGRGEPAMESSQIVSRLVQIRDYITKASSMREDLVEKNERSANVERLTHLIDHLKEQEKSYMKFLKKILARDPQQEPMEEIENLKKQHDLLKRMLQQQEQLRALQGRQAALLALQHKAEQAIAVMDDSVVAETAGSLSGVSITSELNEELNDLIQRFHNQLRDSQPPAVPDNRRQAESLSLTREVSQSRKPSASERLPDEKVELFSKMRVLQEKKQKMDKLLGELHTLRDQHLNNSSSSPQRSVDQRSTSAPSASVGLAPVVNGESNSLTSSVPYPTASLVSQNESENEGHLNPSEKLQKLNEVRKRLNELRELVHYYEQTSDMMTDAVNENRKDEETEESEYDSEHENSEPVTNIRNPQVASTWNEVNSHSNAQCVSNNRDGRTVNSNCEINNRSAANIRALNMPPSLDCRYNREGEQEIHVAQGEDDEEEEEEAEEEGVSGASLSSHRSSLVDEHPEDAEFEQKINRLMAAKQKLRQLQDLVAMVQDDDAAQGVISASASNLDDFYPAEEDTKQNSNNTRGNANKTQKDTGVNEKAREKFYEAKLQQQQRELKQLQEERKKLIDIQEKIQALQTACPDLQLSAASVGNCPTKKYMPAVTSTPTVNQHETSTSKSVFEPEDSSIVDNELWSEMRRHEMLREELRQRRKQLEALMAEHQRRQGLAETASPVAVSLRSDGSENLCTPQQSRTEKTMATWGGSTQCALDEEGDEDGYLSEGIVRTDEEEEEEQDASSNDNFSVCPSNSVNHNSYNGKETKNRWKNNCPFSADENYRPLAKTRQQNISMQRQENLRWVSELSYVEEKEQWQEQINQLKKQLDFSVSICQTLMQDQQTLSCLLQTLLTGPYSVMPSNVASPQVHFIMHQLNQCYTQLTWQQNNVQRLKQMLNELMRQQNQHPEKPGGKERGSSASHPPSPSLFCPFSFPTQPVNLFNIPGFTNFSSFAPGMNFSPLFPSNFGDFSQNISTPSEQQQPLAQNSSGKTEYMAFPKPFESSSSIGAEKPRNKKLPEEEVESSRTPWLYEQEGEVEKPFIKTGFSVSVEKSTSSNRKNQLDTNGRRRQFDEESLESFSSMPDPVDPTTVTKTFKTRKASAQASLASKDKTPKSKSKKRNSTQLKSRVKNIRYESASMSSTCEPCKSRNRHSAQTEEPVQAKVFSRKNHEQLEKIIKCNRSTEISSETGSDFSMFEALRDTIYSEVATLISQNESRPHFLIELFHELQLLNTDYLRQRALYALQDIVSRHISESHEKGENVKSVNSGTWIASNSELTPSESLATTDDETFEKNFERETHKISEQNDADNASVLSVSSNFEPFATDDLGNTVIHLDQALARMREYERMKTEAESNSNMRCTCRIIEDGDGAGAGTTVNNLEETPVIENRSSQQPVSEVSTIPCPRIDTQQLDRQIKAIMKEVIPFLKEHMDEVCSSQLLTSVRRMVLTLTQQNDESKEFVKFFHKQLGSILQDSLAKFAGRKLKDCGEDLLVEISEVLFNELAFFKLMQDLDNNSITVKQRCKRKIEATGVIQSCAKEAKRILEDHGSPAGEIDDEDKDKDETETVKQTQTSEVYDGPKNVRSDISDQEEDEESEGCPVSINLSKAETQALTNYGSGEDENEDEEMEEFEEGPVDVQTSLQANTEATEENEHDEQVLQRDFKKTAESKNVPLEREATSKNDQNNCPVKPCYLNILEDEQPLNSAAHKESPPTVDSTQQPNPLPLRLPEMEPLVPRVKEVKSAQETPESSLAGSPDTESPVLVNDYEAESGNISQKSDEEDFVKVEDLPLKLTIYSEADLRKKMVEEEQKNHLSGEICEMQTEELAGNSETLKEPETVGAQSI
How it was run: as §1

Q04323 = target: T17, Q04323 (Homo sapiens, UniProt Q04323)
T17 construct: performing SuTEx compound screening directly in cells; endogenous in cells; host or cells: DM93 cells (SILAC)
How it was run: as §1

Q92734 = target: T18, Q92734 (Homo sapiens, UniProt Q92734)
T18 construct: endogenous in cells; host or cells: DM93 cells (SILAC), live-cell treatment
How it was run: as §1

T1 sequence (O60828 whole entry): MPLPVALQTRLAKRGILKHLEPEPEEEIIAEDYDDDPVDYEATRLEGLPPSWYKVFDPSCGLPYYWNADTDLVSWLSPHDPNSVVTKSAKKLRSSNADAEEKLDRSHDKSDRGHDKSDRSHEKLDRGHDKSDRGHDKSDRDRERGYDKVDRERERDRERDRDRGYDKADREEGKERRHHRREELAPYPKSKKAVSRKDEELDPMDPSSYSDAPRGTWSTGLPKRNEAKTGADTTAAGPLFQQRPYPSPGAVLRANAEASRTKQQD

## O=C(NC1CC1)c1ccc(S(=O)(=O)n2cncn2)cc1 [HHS-0101, 4-((1H-1,2,4-triazol-1-yl)sulfonyl)-N-cyclopropylbenzamide]
O60828
  liganded tyrosine site 209: HHS0101.Y|HHS0401.Y (tyrosine sites that showed >80% reductions (SR >5) in probe labeling in cells treated with compounds (liganded sites))
P51784
  liganded tyrosine site 396: HHS0101.Y (tyrosine sites that showed >80% reductions (SR >5) in probe labeling in cells treated with compounds (liganded sites))
P52597
  liganded tyrosine site 210: HHS0101.Y|HHS0201.Y|HHS0701.Y (tyrosine sites that showed >80% reductions (SR >5) in probe labeling in cells treated with compounds (liganded sites))
  liganded tyrosine site 298: HHS0101.Y|HHS0701.Y (tyrosine sites that showed >80% reductions (SR >5) in probe labeling in cells treated with compounds (liganded sites))
P61289
  liganded tyrosine site 196: HHS0101.Y|HHS0201.Y|HHS0401.Y (tyrosine sites that showed >80% reductions (SR >5) in probe labeling in cells treated with compounds (liganded sites))
Q8WVJ2
  liganded tyrosine site 145: HHS0101.Y (tyrosine sites that showed >80% reductions (SR >5) in probe labeling in cells treated with compounds (liganded sites))

## O=C(NCC1CC1)c1ccc(S(=O)(=O)n2cncn2)cc1 [HHS-0201, 4-((1H-1,2,4-triazol-1-yl)sulfonyl)-N-(cyclopropylmethyl)benzamide]
O75521
  liganded tyrosine site 285: HHS0201.Y|HHS0301.Y|HHS0401.Y (tyrosine sites that showed >80% reductions (SR >5) in probe labeling in cells treated with compounds (liganded sites))
P07814
  liganded tyrosine site 864: HHS0201.Y (tyrosine sites that showed >80% reductions (SR >5) in probe labeling in cells treated with compounds (liganded sites))
Q92878
  liganded tyrosine site 244: HHS0201.Y|HHS0301.Y (tyrosine sites that showed >80% reductions (SR >5) in probe labeling in cells treated with compounds (liganded sites))
Q96A72
  liganded tyrosine site 36: HHS0201.Y (tyrosine sites that showed >80% reductions (SR >5) in probe labeling in cells treated with compounds (liganded sites))
Q9NV35
  liganded tyrosine site 92: HHS0201.Y (tyrosine sites that showed >80% reductions (SR >5) in probe labeling in cells treated with compounds (liganded sites))
Q9UDY2
  liganded tyrosine site 423: HHS0201.Y|HHS0301.Y (tyrosine sites that showed >80% reductions (SR >5) in probe labeling in cells treated with compounds (liganded sites))

## O=C(NC1CCCCC1)c1ccc(S(=O)(=O)n2cncn2)cc1 [HHS-0301, 4-((1H-1,2,4-triazol-1-yl)sulfonyl)-N-cyclohexylbenzamide]
P30533
  liganded tyrosine site 336: HHS0301.Y|HHS0701.Y (tyrosine sites that showed >80% reductions (SR >5) in probe labeling in cells treated with compounds (liganded sites))
P78527
  liganded tyrosine site 701: HHS0301.Y (tyrosine sites that showed >80% reductions (SR >5) in probe labeling in cells treated with compounds (liganded sites))
Q06203
  liganded tyrosine site 451: HHS0301.Y (tyrosine sites that showed >80% reductions (SR >5) in probe labeling in cells treated with compounds (liganded sites))

## O=C(NCc1ccccc1)c1ccc(S(=O)(=O)n2cncn2)cc1 [HHS-0401, 4-((1H-1,2,4-triazol-1-yl)sulfonyl)-N-benzylbenzamide]
P14550
  liganded tyrosine site 135: HHS0401.Y (tyrosine sites that showed >80% reductions (SR >5) in probe labeling in cells treated with compounds (liganded sites))
Q15154
  liganded tyrosine site 1424: HHS0401.Y|HHS0701.Y (tyrosine sites that showed >80% reductions (SR >5) in probe labeling in cells treated with compounds (liganded sites))

## O=C(c1ccc(S(=O)(=O)n2cncn2)cc1)N1CCC(c2ccccc2)CC1 [HHS-0701, (4-((1H-1,2,4-triazol-1-yl)sulfonyl)phenyl)(4-phenylpiperidin-1-yl)methanone]
Q04323
  liganded tyrosine site 179: HHS0701.Y (tyrosine sites that showed >80% reductions (SR >5) in probe labeling in cells treated with compounds (liganded sites))
Q92734
  liganded tyrosine site 392: HHS0701.Y (tyrosine sites that showed >80% reductions (SR >5) in probe labeling in cells treated with compounds (liganded sites))
